pKi: −log10 of the molar value. “And” between values parts separate entries of the source, which are not always exact repeats. Identical values can stand only once. Like-named read-outs stand apart in the source and are kept apart here.

Series [1] concerns the target T1, 1ptase D54A (aspartate to alanine) (Bos taurus, UniProt P21327, D54A).
T1 sequence (P21327 1-400 D54A): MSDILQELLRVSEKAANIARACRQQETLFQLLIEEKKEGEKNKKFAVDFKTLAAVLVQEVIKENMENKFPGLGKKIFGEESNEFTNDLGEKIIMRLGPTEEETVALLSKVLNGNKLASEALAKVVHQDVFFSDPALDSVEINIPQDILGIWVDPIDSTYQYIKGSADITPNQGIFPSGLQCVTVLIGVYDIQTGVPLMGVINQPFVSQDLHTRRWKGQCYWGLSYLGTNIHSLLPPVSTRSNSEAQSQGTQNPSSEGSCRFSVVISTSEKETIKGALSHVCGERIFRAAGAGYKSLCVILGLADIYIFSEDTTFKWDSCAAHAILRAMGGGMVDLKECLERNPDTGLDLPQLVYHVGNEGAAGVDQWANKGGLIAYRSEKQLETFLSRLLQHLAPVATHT
As to the kind of experiment: Lithium inhibition of 1ptase D54A mutant. It is filed as biochemical, bovine. The text has this:
Low concentrations of lithium and high concentrations of normally catalytic magnesium inhibit Impase and 1ptase uncompetitively with respect to substrate. The inhibitory effects of lithium and magnesium are mutually exclusive in Impase, implying that the inhibitory metals bind at the same or overlapping sites (Ganzhorn, 1990). Structural studies of 1ptase offered additional evidence. […] This was interpreted to mean that electron-poor lithium was bound at the second metal binding site, excluding the binding of electron-rich gadolinium, leading to a dearth of electron density at this site. This conclusion was supported by mutagenic data in which a residue that anchors the second metal binding site, Asp-54 (homologous to Impase Asp-47 (FIGS. 1 and 2)), was mutated to alanine.
FIG. 24 summarizes the results of mutagenic and crystallography experiments representing the lithium binding site in 1ptase. […] When 1ptase was crystallized in the presence of metal and lithium, however, the density at metal site 2 disappeared. This is explained by the fact that lithium, having only 2 electrons, is invisible (right panel). Therefore, loss of occupancy at metal site 2 is a result of invisible lithium binding there, excluding the binding of more electron rich metals. […]

Series [2] deals with intracellular PAP in wild type yeast. As to the kind of experiment: Intracellular PAP concentration by GST-PST binding assay, wild type yeast. It is filed as cell-based, S. cerevisiae. As to the method: (§1) Yeast were grown in CM/ura^− containing 2% galactose to mid-log phase. The cultures were washed extensively and resuspended in the CM/ura^−/met^− media with the noted inclusions. PAP was measured using the ligand binding assay described in Experimental Procedures. Intracellular PAP concentrations were normalized to the amount of soluble protein extracted from the cultures.
For the assay of intracellular PAP concentrations, appropriate yeast strains were grown in CM/ura^− to mid-log phase (OD600=1.0). The cells were centrifuged and washed extensively in sterile water. The cells were resuspended in CM/ura^−/met^− containing methionine (20 μg/ml), lithium, or chlorate as appropriate. The cultures were incubated with shaking at 30° C. At various time points, 2 ml of culture was removed and centrifuged. The cells were washed with 1 ml of water. 250 μl was centrifuged and resuspended in 200 μl K-lysis buffer. 200 μl of glass beads were added, and the cells were disrupted by vigorous bead beating. The amount of soluble protein in this extract was determined using a Bradford dye-binding assay (BioRad, Hercules, Calif., United States of America) with bovine serum albumin as a standard. The remaining 750 μl of washed cells was spun down and resuspended in 250 μl of 2 N HClO4. This was incubated at 4° C. for 20 min, when 250 μl of 1.8 N KOH, 0.4 N KHCO3 were added to neutralize and precipitate the HClO4. The extract was centrifuged at 4° C. to remove the debris, and the supernatant was lyophilized using a rotary evaporator. The dried extracts were frozen at −80° C. for no more than one week prior to use. Extracts were reconstituted in 100 μL of 200 mM HEPES, pH 7.5 and again centrifuged to remove debris. 5′ [^32P] 3′, 5′ PAP was created as described (Spiegelberg, 1999). The GST-PST assay was performed by mixing 10 μL of standard PAP, treated as above, or 10 μL of sample diluted approximately 1:1000 in K-lysis buffer, with 10 μL of radiolabeled PAP (approximately 10,000 CPM). Eighty microliters of a reaction mix containing 100 mM HEPES, pH 7.0, 5 mM DTT, 0.2 mg/ml BSA, and 1 μg of GST-PST were added to start the binding reaction. The reactions were allowed to equilibrate for at least one hour at room temperature. Following incubation, 20 μl of a 50:50 slurry of glutathione sepharose in K-lysis buffer was added. The tubes were incubated with gentle mixing for 10 min at room temperature. The protein with bound PAP was pulled down by centrifugation for 2 min at room temperature. 80 μl of the supernatant, containing free PAP, was removed to a scintillation vial and 200 μl of K-lysis buffer was added to wash the resin. The tubes were centrifuged again and the 200 μl wash was transferred to the original scintillation vials. Radioactivity was determined by adding 5 ml of […] ECONO2™ scintillation fluid (Fisher Scientific, Hampton, N.H., United States of America) and counted in a liquid scintillation counter. The counts were converted to percent isotope bound, and a standard curve was prepared by plotting percent bound vs. the logarithm of the PAP concentration. […]
The GST-PST binding assay was used to determine relative intracellular PAP concentrations in yeast strains grown under various conditions. The PAP concentration determined in the binding assay was normalized to the total soluble protein in parallel extracts, and background was eliminated by reporting only the signal that was sensitive to in vitro degradation by purified recombinant Hal2p. […]

The test system of a further series is patients. Conditions: cited from earlier work.
Series [3] concerns intracellular PAP in met14Δ cells. It is filed as cell-based, S. cerevisiae. As to the method: as §1
(§2) For the assay of intracellular PAP concentrations, appropriate yeast strains were grown in CM/ura^− to mid-log phase (OD600=1.0). The cells were centrifuged and washed extensively in sterile water. The cells were resuspended in CM/ura^−/met^− containing methionine (20 μg/ml), lithium, or chlorate as appropriate. The cultures were incubated with shaking at 30° C. At various time points, 2 ml of culture was removed and centrifuged. The cells were washed with 1 ml of water. 250 μl was centrifuged and resuspended in 200 μl K-lysis buffer. 200 μl of glass beads were added, and the cells were disrupted by vigorous bead beating. The amount of soluble protein in this extract was determined using a Bradford dye-binding assay (BioRad, Hercules, Calif., United States of America) with bovine serum albumin as a standard. The remaining 750 μl of washed cells was spun down and resuspended in 250 μl of 2 N HClO4. This was incubated at 4° C. for 20 min, when 250 μl of 1.8 N KOH, 0.4 N KHCO3 were added to neutralize and precipitate the HClO4. The extract was centrifuged at 4° C. to remove the debris, and the supernatant was lyophilized using a rotary evaporator. The dried extracts were frozen at −80° C. for no more than one week prior to use. Extracts were reconstituted in 100 μL of 200 mM HEPES, pH 7.5 and again centrifuged to remove debris. 5′ [^32P] 3′, 5′ PAP was created as described (Spiegelberg, 1999). The GST-PST assay was performed by mixing 10 μL of standard PAP, treated as above, or 10 μL of sample diluted approximately 1:1000 in K-lysis buffer, with 10 μL of radiolabeled PAP (approximately 10,000 CPM). Eighty microliters of a reaction mix containing 100 mM HEPES, pH 7.0, 5 mM DTT, 0.2 mg/ml BSA, and 1 μg of GST-PST were added to start the binding reaction. The reactions were allowed to equilibrate for at least one hour at room temperature. Following incubation, 20 μl of a 50:50 slurry of glutathione sepharose in K-lysis buffer was added. The tubes were incubated with gentle mixing for 10 min at room temperature. The protein with bound PAP was pulled down by centrifugation for 2 min at room temperature. 80 μl of the supernatant, containing free PAP, was removed to a scintillation vial and 200 μl of K-lysis buffer was added to wash the resin. The tubes were centrifuged again and the 200 μl wash was transferred to the original scintillation vials. Radioactivity was determined by adding 5 ml of […] ECONO2™ scintillation fluid (Fisher Scientific, Hampton, N.H., United States of America) and counted in a liquid scintillation counter. The counts were converted to percent isotope bound, and a standard curve was prepared by plotting percent bound vs. the logarithm of the PAP concentration. This standard curve was used to back-calculate the PAP concentration in the unknown samples.
(§3) The GST-PST binding assay was used to determine relative intracellular PAP concentrations in yeast strains grown under various conditions. The PAP concentration determined in the binding assay was normalized to the total soluble protein in parallel extracts, and background was eliminated by reporting only the signal that was sensitive to in vitro degradation by purified recombinant Hal2p. The assay was characterized further by analyzing the intracellular PAP concentration of wild type yeast grown in the presence of lithium.

Series [4] has as its system intracellular PAP in met3Δ cells. It is filed as cell-based, S. cerevisiae. The procedure: as §1, §2, §3

As for `[Li]` [lithium], the pKi (in general, −log10 of the Ki, conventionally taken in molar units) in series [1] was 1.00. In addition, the “Fold increase of PAP concentration” value is “at least 85.8 fold” in series [2]; not below 65.4 fold in series [3] (met14Δ expressing hPAPSS2, 100 mM lithium vs absence of lithium); not below 72.4 fold in series [4] (met3Δ expressing hPAPSS2, 100 mM lithium vs absence of lithium). The “Intracellular PAP concentration” value in series [2] (wild type, 100 mM LiCl, 8 hr, absence of methionine, normalized to soluble protein) is 42.9 nmol/mg; in series [3] (met14Δ expressing hPAPSS2, 100 mM lithium, eight hours), ~32.8 nmol/mg and 32.7 nmol/mg; in series [3] (met14Δ with empty vector, independent of methionine and lithium concentration, data not shown), “less than 0.5 nmol PAP/mg soluble protein”; in series [4] (met3Δ with empty vector, independent of methionine and lithium concentration, data not shown) it was “less than 0.5 nmol PAP/mg soluble protein”. In addition, the “Occurrence of acquired nephrogenic diabetes insipidus (NDI)” value in the series with patients (patients taking the drug) is 20-50%. Moreover, the “Patients reporting clinically significant polyuria” value with patients (patients undergoing lithium therapy) is recorded as “Up to 20%”.

The values are drawn from US20050037450A1, “Novel targets for lithium therapy” (Duke University, priority 2002, published 2005).
